Assay results taken from ChEMBL document CHEMBL5634121, “Discovery of novel G9a/GLP covalent inhibitors for the treatment of triple-negative breast cancer” (Eur J Med Chem, 2023).
Activity calls are given as the source filed them. The rule behind the calls is not given here.

Columns and labels:
[1] = Cytotoxicity against human L02 cells assessed as reduction in cell viability incubated for 2 days by MTT assay; type: toxicity, cell-based
[2] = test system: MDA-MB-231; assay: Antiproliferative activity against human MDA-MB-231 cells incubated for 3 to 5 days by MTT assay; type: functional, cell-based
[3] = target: T1, Histone-lysine N-methyltransferase EHMT1 (Homo sapiens) (UniProt Q9H9B1); assay: Inhibition of GLP (unknown origin) at 1 uM
T1 sequence (whole entry): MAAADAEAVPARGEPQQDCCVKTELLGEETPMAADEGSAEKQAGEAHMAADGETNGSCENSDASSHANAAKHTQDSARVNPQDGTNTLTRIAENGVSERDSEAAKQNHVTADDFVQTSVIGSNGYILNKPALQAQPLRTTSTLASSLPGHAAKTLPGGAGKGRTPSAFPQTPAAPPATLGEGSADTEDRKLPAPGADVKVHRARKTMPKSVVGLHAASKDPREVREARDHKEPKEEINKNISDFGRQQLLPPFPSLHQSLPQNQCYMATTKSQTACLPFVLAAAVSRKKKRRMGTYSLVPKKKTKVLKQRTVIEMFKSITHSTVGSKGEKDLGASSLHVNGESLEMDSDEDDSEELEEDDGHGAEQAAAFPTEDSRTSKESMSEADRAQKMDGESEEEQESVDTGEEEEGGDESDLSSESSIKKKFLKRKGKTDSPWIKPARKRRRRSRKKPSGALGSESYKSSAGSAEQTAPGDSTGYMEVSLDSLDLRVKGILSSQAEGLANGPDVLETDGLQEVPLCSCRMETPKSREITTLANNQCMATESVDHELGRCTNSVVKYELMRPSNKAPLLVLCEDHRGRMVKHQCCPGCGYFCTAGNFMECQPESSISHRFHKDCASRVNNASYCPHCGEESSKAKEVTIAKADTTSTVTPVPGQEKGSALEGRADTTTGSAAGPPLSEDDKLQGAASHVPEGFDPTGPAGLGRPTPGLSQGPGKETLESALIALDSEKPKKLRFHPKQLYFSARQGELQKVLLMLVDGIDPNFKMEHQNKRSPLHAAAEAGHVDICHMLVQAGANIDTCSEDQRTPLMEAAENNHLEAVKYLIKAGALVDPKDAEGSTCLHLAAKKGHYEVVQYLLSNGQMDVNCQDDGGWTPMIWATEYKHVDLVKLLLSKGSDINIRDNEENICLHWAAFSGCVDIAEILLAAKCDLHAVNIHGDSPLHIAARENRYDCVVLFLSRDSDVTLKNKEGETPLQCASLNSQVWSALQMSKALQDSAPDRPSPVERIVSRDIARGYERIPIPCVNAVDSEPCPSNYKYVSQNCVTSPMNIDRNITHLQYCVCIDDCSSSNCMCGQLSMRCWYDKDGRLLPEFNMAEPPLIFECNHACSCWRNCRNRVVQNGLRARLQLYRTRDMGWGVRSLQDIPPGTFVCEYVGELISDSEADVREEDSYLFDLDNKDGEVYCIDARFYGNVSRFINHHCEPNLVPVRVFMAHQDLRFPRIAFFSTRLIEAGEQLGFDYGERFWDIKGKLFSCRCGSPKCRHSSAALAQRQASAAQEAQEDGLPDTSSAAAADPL

[4] = test system: 4T1; assay: Antiproliferative activity against mouse 4T1 cells incubated for 3 to 5 days by MTT assay; type: functional, cell-based
[5] = target: T2, Histone-lysine N-methyltransferase EHMT2 (Homo sapiens) (UniProt Q96KQ7); assay: Inhibition of G9a (unknown origin) at 1 uM by AlphaLISA immunodetection assay relative to control
T2 sequence (whole entry): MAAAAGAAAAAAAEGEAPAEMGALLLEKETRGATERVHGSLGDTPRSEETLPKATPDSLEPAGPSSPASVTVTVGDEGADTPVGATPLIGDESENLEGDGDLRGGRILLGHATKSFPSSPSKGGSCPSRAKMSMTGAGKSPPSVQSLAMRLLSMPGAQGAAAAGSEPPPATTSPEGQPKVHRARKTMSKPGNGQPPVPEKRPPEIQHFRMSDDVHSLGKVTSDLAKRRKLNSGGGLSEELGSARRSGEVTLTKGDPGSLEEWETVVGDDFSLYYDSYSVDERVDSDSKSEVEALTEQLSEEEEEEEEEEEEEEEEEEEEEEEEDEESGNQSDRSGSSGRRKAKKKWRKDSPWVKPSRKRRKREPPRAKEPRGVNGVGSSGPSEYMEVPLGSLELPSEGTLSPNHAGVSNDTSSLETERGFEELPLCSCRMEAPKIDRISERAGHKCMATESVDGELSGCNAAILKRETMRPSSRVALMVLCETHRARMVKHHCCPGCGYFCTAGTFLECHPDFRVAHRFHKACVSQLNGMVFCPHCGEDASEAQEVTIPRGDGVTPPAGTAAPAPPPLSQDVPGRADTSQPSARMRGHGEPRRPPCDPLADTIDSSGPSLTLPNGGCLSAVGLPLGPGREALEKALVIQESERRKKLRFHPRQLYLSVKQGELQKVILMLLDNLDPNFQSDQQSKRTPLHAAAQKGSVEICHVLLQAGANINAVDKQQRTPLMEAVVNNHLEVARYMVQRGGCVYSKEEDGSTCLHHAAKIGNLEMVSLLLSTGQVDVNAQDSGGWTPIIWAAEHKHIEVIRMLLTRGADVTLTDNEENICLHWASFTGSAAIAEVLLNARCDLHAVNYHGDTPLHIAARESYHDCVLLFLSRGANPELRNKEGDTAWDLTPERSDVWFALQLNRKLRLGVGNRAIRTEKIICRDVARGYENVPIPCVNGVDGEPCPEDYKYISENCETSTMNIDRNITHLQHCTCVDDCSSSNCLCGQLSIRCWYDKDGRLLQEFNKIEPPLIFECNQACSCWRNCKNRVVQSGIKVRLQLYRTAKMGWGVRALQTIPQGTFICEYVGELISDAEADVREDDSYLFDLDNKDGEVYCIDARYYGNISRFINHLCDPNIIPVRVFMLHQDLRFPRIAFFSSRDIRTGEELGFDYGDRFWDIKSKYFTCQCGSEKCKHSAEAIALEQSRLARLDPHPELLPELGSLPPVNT

[6] = test system: MDA-MB-231; assay: Induction of apoptosis in human MDA-MB-231 cells assessed as necrotic cells at 20 uM incubated for 72 hrs by Annexin V and PI staining based flow cytometry analysis (reference value: 0.32 %); type: functional
[7] = test system: MDA-MB-231; assay: Antiproliferative activity against human MDA-MB-231 cells after 5 days by MTT assay; type: functional, cell-based; details: MDA-MB-231, 120 h
[8] = test system: MDA-MB-231; assay: Induction of apoptosis in human MDA-MB-231 cells assessed as early apoptotic cells at 20 uM incubated for 72 hrs by Annexin V and PI staining based flow cytometry analysis (reference value: 0.92 %); type: functional
[9] = target: T3, Histone-lysine N-methyltransferase EHMT1/EHMT2 (Homo sapiens) (UniProt Q9H9B1+Q96KQ7); assay: Inhibition of G9a/GLP in human MDA-MB-231 cells assessed as reduction in H3K9 dimethylation at 20 uM incubated for 1 day followed by compound washout and measured after 1 to 4 days; type: cell-based
[10] = test system: MDA-MB-231; assay: Induction of apoptosis in human MDA-MB-231 cells assessed as late apoptotic cells at 20 uM incubated for 72 hrs by Annexin V and PI staining based flow cytometry analysis (reference value: 0.45 %); type: functional
[11] = target: T3, Histone-lysine N-methyltransferase EHMT1/EHMT2 (Homo sapiens); assay: Inhibition of G9a/GLP in human MDA-MB-231 cells assessed as reduction in H3K9 dimethylation incubated for 3 days by Western blotting analysis; type: cell-based; details: dose 2.5-20 µM, time 3.0 day
[12] = test system: MDA-MB-231; assay: Inhibition of colony formation in human MDA-MB-231 cells at 1 to 10 uM refreshed every 4 days for 12 days by crystal violet staining based assay; type: functional, cell-based; details: dose 1-10 µM, time 12.0 day
[13] = test system: MDA-MB-231; assay: Induction of apoptosis in human MDA-MB-231 cells assessed as viable cells at 20 uM incubated for 72 hrs by Annexin V and PI staining based flow cytometry analysis (reference value: 98.31 %); type: functional; details: read-out: Activity
[14] = test system: MDA-MB-231; assay: Antiproliferative activity against human MDA-MB-231 cells assessed as cell growth inhibition at 20 uM incubated for 1 day followed by compound washout and measured after 1 to 4 days; type: functional, cell-based
[15] = target: T2, Histone-lysine N-methyltransferase EHMT2 (Homo sapiens); assay: Inhibition of G9a (unknown origin)
[16] = target: T3, Histone-lysine N-methyltransferase EHMT1/EHMT2 (Homo sapiens); assay: Inhibition of G9a/GLP in human MDA-MB-231 cells assessed as reduction in H3K9 dimethylation at 20 uM incubated for 3 days by Western blotting analysis; type: cell-based; details: time 3.0 day
[17] = Mus musculus, 4T1, read-out: IC50

| Compound | IC50 [2] | IC50 [4, 17] | inhibition [5] | further results |
| --- | --- | --- | --- | --- |
| COc1cc2nc(N3CCCN(C)CC3)nc(NC3CCN(Cc4ccccc4)CC3)c2cc1OC |  |  |  | IC50 at 2 days [1]: 4.28 µM |
| C=CC(=O)N1CC=C(c2nc(NC3CCN(C)CC3)c3cc(OC)c(OC)cc3n2)C1 | 0.89 µM | 10.4 µM | 98% | inhibition [3]: Active |
| C=CC(=O)Nc1cccc(-c2nc(NC3CCN(C(C)C)CC3)c3cc(OC)c(OC)cc3n2)c1 | 1.53 µM | 10.4 µM | 26% |  |
| COc1cc2c(NC3CCN(C(C)C)CC3)nc(N3CCC(F)(F)CC3)nc2cc1OCCCN1CCCC1 | 0.99 µM |  |  | Activity [6]: 4.04%; IC50 [7]: 1 µM; IC50 ([4]; 4t1): 1.55 µM; Activity [8]: 72.11%; inhibition [9]: inactive; Activity [10]: 16.69%; inhibition [11]: Dose-Dependent Effect; inhibition [12]: Active; viability at 20 µM [13]: 7.16%; IC50 at 2 days [1]: 6.99 µM; Activity [14]: inactive |
| C=CC(=O)N1CC=C(c2nc(NC3CCN(C(C)C)CC3)c3cc(OC)c(OC)cc3n2)C1 | 1.27 µM | 28.1 µM | 24% |  |
| CCC(=O)Nc1cccc(-c2nc(NC3CCN(C)CC3)c3cc(OC)c(OC)cc3n2)c1 |  |  |  | Activity [6]: 1.32%; Activity [8]: 8.69%; inhibition [15]: inactive; Activity [10]: 7.29%; viability at 20 µM [13]: 82.7%; Activity [14]: inactive; inhibition [16]: Active |
| C=CC(=O)NC/C=C/c1nc(NC2CCN(Cc3ccccc3)CC2)c2cc(OC)c(OC)cc2n1 | 2.07 µM | 17.6 µM | 60% |  |
| C=CC(=O)N1CCC=C(c2nc(NC3CCN(C(C)C)CC3)c3cc(OC)c(OC)cc3n2)C1 | 13.4 µM | 11.2 µM | 7% |  |
| CCC(=O)N1CCC=C(c2nc(NC3CCN(C)CC3)c3cc(OC)c(OC)cc3n2)C1 |  |  |  | inhibition [15]: inactive |
| C=CC(=O)N1CCC=C(c2nc(NC3CCN(C)CC3)c3cc(OC)c(OC)cc3n2)C1 | 3.52 µM | 8.94 µM | 98% | inhibition [3]: Active |
| C=CC(=O)Nc1ccc(C)c(-c2nc(NC3CCN(C(C)C)CC3)c3cc(OC)c(OC)cc3n2)c1 | 18.3 µM | 25.6 µM |  |  |
| CCC(=O)N1CC=C(c2nc(NC3CCN(C)CC3)c3cc(OC)c(OC)cc3n2)C1 |  |  |  | inhibition [15]: inactive |
| C=CC(=O)NC/C=C/c1nc(NC2CCN(C)CC2)c2cc(OC)c(OC)cc2n1 | > 30 µM | > 30 µM |  |  |
| C=CC(=O)NC/C=C/c1nc(NC2CCN(C(C)C)CC2)c2cc(OC)c(OC)cc2n1 | 2.26 µM | > 30 µM | 56% |  |
| C=CC(=O)N1CC=C(c2nc(NC3CCN(Cc4ccccc4)CC3)c3cc(OC)c(OC)cc3n2)C1 | 1.6 µM | 8.96 µM | 38% |  |
| C=CC(=O)N1CCC=C(c2nc(NC3CCN(Cc4ccccc4)CC3)c3cc(OC)c(OC)cc3n2)C1 | 10.5 µM | 28.6 µM |  |  |
